The assay has as its target recombinant eIF4E (Homo sapiens (Human), UniProt P06730). Kind of assay: Fluorescence polarization competition assay for eIF4E binding potency. The essentials:
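FP readout; IC50 fit from 8-point, 3-fold series. 75 nM eIF4E + 20 nM ATTO-550-labelled m7GDP probe, Tris pH 7.5/NaCl/DTT/Tween buffer, 1% DMSO final. 30 min RT equilibration, light-protected.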
(Polarisation of emitted light reports the rotation of a fluorescent probe.)

The mark [1] stands for this setting: fluorescence polarization competition, 75 nM recombinant eIF4E, 20 nM EDA-m7GDP-ATTO-550, IC50 class, read-out: elF4E FP.
The mark [2] stands for this setting: inhibition of eIF4E/EDA-m7GDP-ATTO-550 binding by 50%, Table 4B calculated values, read-out: IC50.
The mark [3] stands for this setting: inhibition of eIF4E/EDA-m7GDP-ATTO-550 binding, calculated IC50 values, Table 4B, read-out: IC50.

SMILES strings stand for the structures. Where two headings read alike, the source gives them in different places.

Chain of recombinant eIF4E (P06730 whole entry): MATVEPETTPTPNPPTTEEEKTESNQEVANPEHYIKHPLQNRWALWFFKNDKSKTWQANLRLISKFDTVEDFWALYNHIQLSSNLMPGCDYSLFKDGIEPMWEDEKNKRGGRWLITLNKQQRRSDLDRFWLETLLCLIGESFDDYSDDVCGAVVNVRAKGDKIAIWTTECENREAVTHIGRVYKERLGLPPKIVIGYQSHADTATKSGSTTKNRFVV

Turning to `Cc1cc(-c2cc(Cl)ccc2OCCn2c(C)nc3cc(C(F)(F)F)c(-c4ccnc(C)c4F)c(C#N)c3c2=O)c2scc(C(=O)O)c2n1` [compound 472], the IC50 runs as follows: under setting [1], below 50 nM; under setting [2], 23.6 nM.
With `C#Cc1c(-c2cc(Cl)ccc2OCCn2c(C(F)F)nc3cccc(C#N)c3c2=O)csc1C(=O)O` [compound 2034], the IC50 under setting [3] was 6.2 nM.
For `Cc1cc(-c2cc(Cl)ccc2OCCn2c(C)nc3cc(C(F)(F)F)c(-n4ccnc4)c(C#N)c3c2=O)c2scc(C(=O)O)c2n1` [compound 632], the IC50 is below 50 nM under setting [1] and 12 nM under setting [2].
Take `Cc1nc2cnc(N3CC4(C3)CN(C(C)(C)C(F)F)C4)c(C#N)c2c(=O)n1CCOc1ccc(Cl)cc1-c1ccnc2c(C(=O)O)csc12` [compound 823]: the IC50 is, setting by setting: under setting [1], below 50 nM; under setting [2], 11.5 nM.
Regarding `CC(=O)c1csc2c(-c3cc(Cl)ccc3C#CCn3c(C)nc4cnc(N(C)[C@H]5C[C@H]6CC[C@@H](C5)N6CC(F)F)c(C#N)c4c3=O)ccnc12` [compound 1406], the IC50 under setting [3] was 26.6 nM.
The same measure, in the same setting: the value for `Cc1nc2cnc(N(C)C3CCN(CC(C)(F)F)CC3)c(C#N)c2c(=O)n1CC#Cc1ccc(Cl)cc1-c1ccnc2c(C(=O)NS(=O)(=O)c3ccc(C(F)(F)F)cn3)csc12` [compound 1679] was 29.3 nM.
Turning to `Cc1nc2ccc(S(=O)(=O)N(C)C)c(C#N)c2c(=O)n1CCOc1ccc(Cl)cc1-c1ccnc2c(C(=O)O)csc12` [compound 196], the IC50 reads like this: under setting [1], below 50 nM; under setting [2], 25.7 nM.
As for `Cc1nc2cnc(N(C)C3CCN(CC(F)F)CC3)c(C#N)c2c(=O)n1CCOc1ccc(Cl)cc1-c1ccnc2c(P(=O)(O)O)csc12` [compound 1617], under setting [3], the IC50 is 15.6 nM.
Take `Cc1cc(-c2cc(Cl)ccc2OCCn2c(C)nc3cc(C(F)(F)F)c(-c4nccnc4C(F)(F)F)nc3c2=O)c2scc(C(=O)O)c2n1` [compound 990]: the IC50 runs as follows: under setting [1], below 50 nM; under setting [2], 32.2 nM.
For `Cc1nc2cnc(N(C)C3CCN(CC(C)(F)F)CC3)c(C#N)c2c(=O)n1CC#Cc1ccc(Cl)cc1-c1ccnc2c(C(=O)NS(=O)(=O)c3ccncc3)csc12` [compound 1143], the IC50 is, setting by setting: under setting [1], below 50 nM; under setting [2], 24.6 nM.
For the compound `Cc1nc2cnc(N3CC4(CC4)N(C)C4(CC4)C3)c(C#N)c2c(=O)n1CCOc1ccc(Cl)cc1-c1ccnc2c(C(=O)O)csc12` [compound 1363], under setting [3], the IC50 is 42.9 nM.
`Cc1cc(-c2cc(Cl)ccc2OCCn2c(C)nc3cc(CN(C)C)c(C(F)(F)F)c(C#N)c3c2=O)c2scc(C(=O)O)c2n1` [compound 635]: the IC50 under setting [1] is below 50 nM and the IC50 under setting [2] is 10.6 nM.
As to `Cc1nc2cc(C(F)(F)F)cc(C#N)c2c(=O)n1CCOc1ccc(Cl)cc1-c1cc(CCN)nc2c(C(=O)O)csc12` [compound 1374], the IC50 under setting [3] is 56.1 nM.
For `Cc1nc2cc(CN(C)Cc3cn(C)nn3)c(OC(F)F)c(C#N)c2c(=O)n1CCOc1ccc(Cl)cc1-c1ccnc2c(C(=O)O)csc12` [compound 651], the IC50 by setting is: under setting [1], below 50 nM; under setting [2], 21.8 nM.
As for `Cc1nc2cc3c(c(C#N)c2c(=O)n1CCOc1ccc(Cl)cc1-c1ccnc2c(C(=O)O)csc12)S(=O)(=O)N(C)C3` [compound 1953], the IC50 under setting [3] was 89.3 nM.
On to `Cc1cc(-c2cc(Cl)ccc2OCCn2c(C)nc3c(C)nc(-c4cccc(F)c4)c(C#N)c3c2=O)c2scc(C(=O)O)c2n1` [compound 475], for which the IC50 reads like this: under setting [1], below 50 nM; under setting [2], 17 nM.
Taken in the same sequence, the figures for `Cc1cc(-c2cc(Cl)ccc2OCCn2c(C)nc3cc4c(c(C#N)c3c2=O)CC(N(C)C)C4)c2scc(C(=O)O)c2n1` (centres unmarked) [compound 611] were below 50 nM and 7.76 nM.
The like results for `Cc1nc2cc(C(F)(F)F)cc(C#N)c2c(=O)n1CCOc1ccc(Cl)cc1-c1ccnc2c(C(F)(F)C(=O)O)csc12` [compound 295] were, in that order, 50 to 1000 nM and 167 nM.
Consider `Cc1sc2c(-c3cc(Cl)ccc3OCCn3c(C)nc4cc(C(F)(F)F)c(N5CCN(C)CC5=O)c(C#N)c4c3=O)ccnc2c1C(=O)O` [compound 1272], for which, under setting [3], the IC50 was 28.1 nM.
As for `Cc1nc2cc(C(F)(F)F)c(N3CCN(C)CC3)nc2c(=O)n1CCOc1ccc(Cl)cc1-c1ccnc2c(C(=O)NS(C)(=O)=O)csc12` [compound 1155], the IC50 by setting is: under setting [1], below 50 nM; under setting [2], 18.1 nM.
For `Cc1nc2cnc(N3CCN([C@H]4C[C@@H]4C(F)(F)F)CC3)c(C#N)c2c(=O)n1CCOc1ccc(Cl)cc1-c1ccnc2c(C(=O)O)csc12` [compound 1642], under setting [3], the IC50 was 24.5 nM.
As for `Cc1nc2cc(C(F)(F)F)cc(C#N)c2c(=O)n1CCOc1ccc(Cl)cc1-c1cccc2c(C(=O)O)c[nH]c12` [compound 322], the IC50 is, setting by setting: under setting [1], 50 to 1000 nM; under setting [2], 116 nM.
Taken in the same sequence, the figures for `CNC(=O)c1cc(C#N)c2c(=O)n(CCOc3ccc(Cl)cc3-c3ccnc4c(C(=O)O)csc34)c(C)nc2c1` [compound 412] were 50 to 1000 nM and 70.1 nM.
For the compound `Cc1cccc(S(=O)(=O)NC(=O)c2csc3c(-c4cc(Cl)ccc4C#CCn4c(C)nc5cnc(N(C)C6CCN(CC(C)(F)F)CC6)c(C#N)c5c4=O)ccnc23)n1` [compound 1678], the IC50 under setting [3] was 28 nM.
As to `CCc1ncc2nc(C)n(CCOc3ccc(Cl)cc3-c3ccnc4c(C(=O)O)csc34)c(=O)c2c1C#N` [compound 813], the IC50 under setting [1] was below 50 nM and the IC50 under setting [2] is 4.04 nM.
For `Cc1nc2c(F)cc(C(F)F)c(C#N)c2c(=O)n1CCOc1ccc(Cl)cc1-c1ccnc2c(C(=O)NS(C)(=O)=O)csc12` [compound 1945], the IC50 under setting [3] is 44.9 nM.
`N#Cc1cccc2nc(C(F)F)n(CCOc3ccc(Cl)cc3-c3cncn(CC(=O)O)c3=S)c(=O)c12` [compound 192]: the IC50 is, setting by setting: under setting [1], above 1000 nM; under setting [2], 1310 nM.
As to `N#Cc1cncc2nc(C(F)F)n(CCOc3ccc(Cl)cc3-c3ccnc4c(C(=O)O)csc34)c(=O)c12` [compound 39], the IC50 was 50 to 1000 nM under setting [1] and 116 nM under setting [2].
Taken in the same sequence, the figures for `Cc1sc2c(-c3cc(Cl)ccc3OCCn3c(C)nc4cc(C(F)(F)F)c(C5CCNCC5)c(C#N)c4c3=O)ccnc2c1C(=O)O` [compound 887] were below 50 nM and 20.1 nM.
Regarding `COCc1cc(-c2cc(Cl)ccc2OCCn2c(C)nc3cc(C(F)(F)F)c(CN4CCN(C)CC4)c(C#N)c3c2=O)c2scc(C(=O)O)c2n1` [compound 489], the IC50 under setting [1] is below 50 nM.
For the compound `Cc1cc(-c2cc(Cl)ccc2OCCn2c(C)nc3cc(C(F)(F)F)c(CN4CCSCC4)c(C#N)c3c2=O)c2scc(C(=O)O)c2n1` [compound 1376], under setting [3], the IC50 was 13.6 nM.
On the same count and under the same terms, the same measure for `Cc1nc2cnc(N(C)C3CCN(CC(F)F)CC3)c(C#N)c2c(=O)n1CC#Cc1ccc(Cl)cc1-c1ccnc2c(C(=O)NS(=O)(=O)CC(F)(F)F)csc12` [compound 1597]: 22.1 nM; for `Cc1nc2cnc(C#CCN(C)CCF)c(C#N)c2c(=O)n1CCOc1ccc(Cl)cc1-c1ccnc2c(C(=O)O)csc12` [compound 1326]: 12.8 nM.
For the compound `Cc1nc2cnc(N3CC4(CN(CCOC(F)(F)F)C4)C3)c(C#N)c2c(=O)n1CC#Cc1ccc(Cl)cc1-c1ccnc2c(C(=O)O)csc12` [compound 894], the IC50 was below 50 nM under setting [1] and 21.6 nM under setting [2].
Taken in the same sequence, the figures for `Cc1cnc(C)c(-c2c(C(F)(F)F)cc3nc(C)n(CCOc4ccc(Cl)cc4-c4cc(C)nc5c(C(=O)O)csc45)c(=O)c3c2C#N)c1` [compound 902] were below 50 nM and 14.2 nM.
The like results for `Cc1cc(-c2cc(Cl)ccc2OCCn2c(C)nc3cc(Cl)c(-c4ccc(N(C)C)nc4)c(C#N)c3c2=O)c2scc(C(=O)O)c2n1` [compound 397] were, in that order, below 50 nM and 10.5 nM.
Taken in the same sequence, the figures for `Cc1nc2c(N(C)C3CCN(C)CC3F)ncc(C#N)c2c(=O)n1CCOc1ccc(Cl)cc1-c1ccnc2c(C(=O)O)csc12` (centres unmarked) [compound 862] were below 50 nM and 20.9 nM.
For `Cc1sc2c(-c3cc(Cl)ccc3OCCn3c(C)nc4cc(C(F)(F)F)c(N5CCN(C)CC5)c(C#N)c4c3=O)cc(CF)nc2c1C(=O)O` [compound 1237], the IC50 runs as follows: under setting [1], below 50 nM; under setting [3], 6.68 nM.
On to `Cc1cc(-c2cc(Cl)ccc2OCCn2c(C)nc3c(F)cc(Cl)c(C#N)c3c2=O)c2scc(C(=O)O)c2n1` [compound 588], for which the IC50 is below 50 nM under setting [1] and 49.3 nM under setting [2].
In the case of `Cc1nc2cnc(N(C)C3CCN(C(C)(C)C(F)F)CC3)c(C#N)c2c(=O)n1CCOc1ccc(Cl)cc1-c1ccnc2c(C(=O)O)csc12` [compound 1431], under setting [3], the IC50 is 19.8 nM.
Take `Cc1ccc(-c2ncc3nc(C)n(CCOc4ccc(Cl)cc4-c4cc(C)nc5c(C(=O)O)csc45)c(=O)c3c2C#N)cc1` [compound 946]: the IC50 was below 50 nM under setting [1] and 27.7 nM under setting [2].
`CCN(c1ncc2nc(C)n(CC#Cc3ccc(Cl)cc3-c3ccnc4c(C(=O)NS(=O)(=O)c5ccncc5)csc34)c(=O)c2c1C#N)C1CCN(C2COC2)CC1` [compound 1740]: the IC50 under setting [3] was 12.6 nM.
Turning to `Cc1nc2c(C#N)cc(C(F)F)c(C#N)c2c(=O)n1CCOc1ccc(Cl)cc1-c1ccnc2c(C(=O)O)csc12` [compound 197], the IC50 by setting is: under setting [1], 50 to 1000 nM; under setting [2], 52.4 nM.
In the case of `Cc1cc(-c2cc(Cl)ccc2OCCn2c(C)nc3cc(C(F)(F)F)c(C4CCN(C)CC4)cc3c2=O)c2sc(C)c(C(=O)O)c2n1` [compound 1971], the IC50 under setting [3] is 51.9 nM.
For `Cc1cc(-c2cc(Cl)ccc2OCCn2c(C)nc3cc(C(C)N(C)C)c(OC(F)F)c(C#N)c3c2=O)c2scc(C(=O)O)c2n1` (centres unmarked) [compound 710], the IC50 runs as follows: under setting [1], below 50 nM; under setting [2], 31.6 nM.
Taken in the same sequence, the figures for `Cc1cc(-c2cc(Cl)ccc2OCCn2c(C)nc3cnc(O)c(C#N)c3c2=O)c2scc(C(=O)O)c2n1` [compound 1004] were below 50 nM and 22.5 nM.

(Values after patent US11286268B1, “EIF4E-inhibiting compounds and methods” (EFFECTOR THERAPEUTICS, INC., priority 2019, dated 2022).)
